Data published in US5859067A, “Use of natural products and related synthetic compounds for the treatment of cardiovascular disease” (priority 1993, dated 1999).
Several values for one entry are separate records, joined by “and”; a condition that tells them apart may be missing. Equal entries are not always repeated.

Target: T1, human erythrocyte plasma membrane Ca^2+ -ATPase (Homo sapiens, UniProt P23634)
T1 construct: Calmodulin-depleted erythrocyte membranes were prepared by continuous filtration through a hollow fibre; tissue New South Wales Red Cross Transfusion Service, Sydney; host or cells: human packed red blood cells (calmodulin-depleted erythrocyte membranes)
Test: Ca^2+ -ATPase assay (erythrocyte membranes; Table 1)
Assay type: biochemical
Settings: at 100 μM; read-out: INHIBITION OF Ca^2+ -ATPase PERCENT (%)
Description: Natural and synthetic compounds of formula (I) were tested for their ability to influence human erythrocyte plasma membrane Ca^2+ -ATPase.
Packed cells were obtained from the New South Wales Red Cross Transfusion Service, Sydney. The whole preparation was carried out at 4° C. 1 unit of packed red cells was washed 3 times with isotonic buffer, containing 130 mM KCl, 20 mM Tris-HCl (pH 7.4), and the cells were collected by centrifugation at 4,000 RPM. The cells were haemolysed by the buffer containing 1 mM EDTA, 10 mM Tris-Hcl (pH 7.4), 0.5 mM PMSF (phenylmethyl sulfonyl fluoride). The haemolyzate mixture was passed through the hollow fibre system until the membrane appeared white, and then washed with 10 mM potassium Hepes (pH 7.4). The membranes were collected by centrifugation at 10,000 RPM for 20 min, the membranes were resuspended in storage buffer containing 130 mM KCl, 2 mM dithiothreitol, 0.5 mM MgCl2, 20 mM potassium-Hepes (pH 7.5). The membranes with protein concentration of 1.5-5.4 mg/ml were stored at -80° C. until required.
Erythrocyte membranes (0.071-0.098 mg/ml) were incubated at 37° C. for one hour in a total volume of 0.4 ml of 65 mM KCl, 20 mM potassium-Hepes, 5 mM MgCl2, 50 μM CaCl2, 0.1 μm calmodulin, 0.1 mM EGTA. The reaction was started by adding 2 mM ATP(pH 7.4). […] The activity of the Mg^2+ -ATPase (assayed in the absence of added CaCl2) was subtracted from the total activity assayed in the presence of Ca^2+. […] A concentrated solution of the test substances was added to the reaction medium before adding ATP.

T1 sequence (P23634 1-1205 isoform P23634-6): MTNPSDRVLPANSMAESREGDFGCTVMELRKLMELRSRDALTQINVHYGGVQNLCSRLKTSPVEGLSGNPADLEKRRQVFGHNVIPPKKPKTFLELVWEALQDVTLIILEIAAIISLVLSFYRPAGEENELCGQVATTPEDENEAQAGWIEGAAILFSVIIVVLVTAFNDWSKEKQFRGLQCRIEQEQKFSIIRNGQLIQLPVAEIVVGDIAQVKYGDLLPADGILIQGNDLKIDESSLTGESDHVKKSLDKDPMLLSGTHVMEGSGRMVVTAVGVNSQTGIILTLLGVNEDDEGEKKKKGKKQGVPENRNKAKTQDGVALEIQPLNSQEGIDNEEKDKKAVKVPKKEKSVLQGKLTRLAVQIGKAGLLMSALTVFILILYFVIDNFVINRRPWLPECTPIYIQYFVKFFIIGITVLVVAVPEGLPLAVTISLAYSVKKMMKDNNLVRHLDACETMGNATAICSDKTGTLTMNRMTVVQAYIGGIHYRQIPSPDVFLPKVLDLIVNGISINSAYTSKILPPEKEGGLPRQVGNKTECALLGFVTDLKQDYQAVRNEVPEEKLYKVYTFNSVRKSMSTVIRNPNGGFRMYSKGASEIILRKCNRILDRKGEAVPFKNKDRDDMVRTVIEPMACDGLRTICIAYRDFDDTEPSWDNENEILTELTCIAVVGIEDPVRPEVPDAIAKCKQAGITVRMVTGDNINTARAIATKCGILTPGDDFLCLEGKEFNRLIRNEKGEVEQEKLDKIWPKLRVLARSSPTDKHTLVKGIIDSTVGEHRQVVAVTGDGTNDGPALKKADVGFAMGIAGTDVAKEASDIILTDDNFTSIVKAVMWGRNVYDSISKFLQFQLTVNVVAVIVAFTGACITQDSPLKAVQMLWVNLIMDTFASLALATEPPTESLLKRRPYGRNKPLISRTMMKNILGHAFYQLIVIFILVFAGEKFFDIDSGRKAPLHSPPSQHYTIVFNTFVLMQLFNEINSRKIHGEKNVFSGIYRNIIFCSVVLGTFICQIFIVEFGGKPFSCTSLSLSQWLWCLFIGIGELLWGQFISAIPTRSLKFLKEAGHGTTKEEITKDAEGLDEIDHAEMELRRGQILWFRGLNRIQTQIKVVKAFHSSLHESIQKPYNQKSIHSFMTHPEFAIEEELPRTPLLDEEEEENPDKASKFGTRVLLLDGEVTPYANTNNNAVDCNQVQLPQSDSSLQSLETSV
T1 sequence (P35613 140-385 partner limits assumed): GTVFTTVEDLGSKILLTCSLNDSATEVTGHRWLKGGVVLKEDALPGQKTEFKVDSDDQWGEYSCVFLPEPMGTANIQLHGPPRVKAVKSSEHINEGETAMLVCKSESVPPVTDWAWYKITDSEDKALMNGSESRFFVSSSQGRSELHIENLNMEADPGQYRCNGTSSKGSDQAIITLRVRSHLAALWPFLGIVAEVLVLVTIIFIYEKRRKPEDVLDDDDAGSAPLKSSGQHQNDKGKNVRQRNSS

| Structure (SMILES) | inhibition at 100 µM [%] |
| --- | --- |
| Oc1ccc(CCCCCCCCCCCCCCc2ccc(O)cc2)cc1 [1,14-bis(4-hydroxyphenyl)tetradecane] | 5 |
| CCCCCCCCCCc1cc(O)cc(O)c1C(=O)OCC [ethyl 2,4-dihydroxy-6-decylbenzoate] | 60 |
| Oc1ccc(CCCCCCCCCCCCCCc2ccccc2O)cc1 [1-(2-hydroxyphenyl)-14-(4-hydroxyphenyl)tetradecane] | 60 |
| CCCCCCCCCc1cc(O)cc(O)c1C(=O)OCC [ethyl 2,4-dihydroxy-6-nonylbenzoate] | 73 |
| Oc1ccccc1CCCCCCCCCCCCCCc1ccccc1O [1,14-bis(2-hydroxyphenyl)tetradecane] | 84 |
| CC(C)(C)c1cc(O)c(O)c(C(C)(C)C)c1 [3,5-di-tert-butyl-catechol, reference compound] | 76 |
| CCCCCCCCCCc1cc(O)cc(O)c1 [5-decylresorcinol] | 30 |

Same assay, conditions: read-out: INHIBITION OF Ca^2+ -ATPase IC50

| Structure (SMILES) | IC50 [µM] |
| --- | --- |
| Cc1cc(Cc2cc(C)cc(C(C)(C)C)c2O)c(O)c(C(C)(C)C)c1 [2,2'-methylenebis(4-methyl-6-tert-butylphenol), reference compound] | 45 |
| Oc1ccc(CCCCCCCCCCCCCCc2ccc(O)cc2)cc1 [1,14-bis(4-hydroxyphenyl)tetradecane] | 280 |
| CCCCCCCCCCc1cc(O)cc(O)c1C(=O)OCC [ethyl 2,4-dihydroxy-6-decylbenzoate] | 85 |
| Oc1ccc(CCCCCCCCCCCCCCc2ccccc2O)cc1 [1-(2-hydroxyphenyl)-14-(4-hydroxyphenyl)tetradecane] | 81 |
| CCCCCCCCCc1cc(O)cc(O)c1C(=O)OCC [ethyl 2,4-dihydroxy-6-nonylbenzoate] | 62 |
| Oc1ccccc1CCCCCCCCCCCCCCc1ccccc1O [1,14-bis(2-hydroxyphenyl)tetradecane] | 28 |
| CC(C)(C)c1cc(O)c(O)c(C(C)(C)C)c1 [3,5-di-tert-butyl-catechol, reference compound] | 84 |
| CCCCCCCCCCc1cc(O)cc(O)c1 [5-decylresorcinol] | 135 |

Same assay, conditions: read-out: INHIBITION OF Ca^2+ -ATPase PERCENT (%)

| Structure (SMILES) | inhibition at 100 µM [%] |
| --- | --- |
| Cc1cc(Cc2cc(C)cc(C(C)(C)C)c2O)c(O)c(C(C)(C)C)c1 [2,2'-methylenebis(4-methyl-6-tert-butylphenol), reference compound] | 74 |

System: brine shrimp (Artemia salina Leach)
Test: Brine shrimp toxicity bioassay
Assay type: in vivo
Settings: 24 hours
Description: There are many applications of the assay including analysis of toxic substances, anaesthetics, morphine-like substances and cocarcinogenicity of phorbol esters.
6 (K Hostettman, ed.), Academ Press, London, 1-32. DMSO solutions of the substances to be tested were added directly to the vials containing the brine shrimp. As the concentration of DMSO that we wished to use was higher than the recommended 1% v/v testing of the toxicity of the DMSO was therefore necessary.
Brine shrimp toxicity was assayed, except for some minor modifications, according to the method of McLaughlin et al as reported in Brine Shrimp: A convenient general bioassay for active plant constituents, B N Meyer, N R Ferrigni, J E Putman, L B Jacobsen, D E Nhols and J L McLaughlin. […] J L McLaughlin. […] 6 (K Hostettman, ed.), Academ Press, London, 1-32. Ten shrimp were added transferred to each of the vials and the volume adjusted to 4.9 mL. Each dose was performed in triplicate, including the control. In quick succession, the appropriate volume of additional DMSO for each dose, required to achieve a final concentration of 2%, was added before the appropriate volume of test solution. The vials were gently mixed and the time noted. After 24 hours, the number of survivors were counted and % mortality was determined.
The LC50 values were expressed in both μM and μg/mL.

| Structure (SMILES) | toxicity to brine shrimp (in words) |
| --- | --- |
| C[S+](C)[O-] [DMSO, dimethyl sulfoxide] | No toxicity towards brine shrimp was observed |

Same assay, conditions: 24 hours; read-out: LC50 brine shrimp

| Structure (SMILES) | LC50 [µM] |
| --- | --- |
| CCCCCCCCC(=O)c1ccc(O)cc1 [4-nonanoylphenol] | 0.1 |

Same assay, conditions: Artemia salina, 24 h, read-out: % Deaths

| Structure (SMILES) | mortality at 1 % [%] | mortality at 2 % [%] | mortality at 3 % [%] | mortality at 4 % [%] | mortality at 5 % [%] | mortality at 7 % [%] | mortality at 9 % [%] | mortality at 11 % [%] | mortality at 13 % [%] | mortality at 15 % [%] |
| --- | --- | --- | --- | --- | --- | --- | --- | --- | --- | --- |
| C[S+](C)[O-] [DMSO, dimethyl sulfoxide] | 0 | 0 | 0 | 0 | 9 | 12 | 18 | 57 | 96 | 100 |

Same assay, conditions: Artemia salina, 24 h, read-out: % Deaths

| Structure (SMILES) | mortality at 20 % [%] | mortality at 25 % [%] |
| --- | --- | --- |
| C[S+](C)[O-] [DMSO, dimethyl sulfoxide] | 100 | 100 |

Same assay, conditions: Artemia salina, 24 h, read-out: LC50 brine shrimp

| Structure (SMILES) | LC50 |
| --- | --- |
| CCCCCc1cc(O)cc(O)c1 [5-pentylresorcinol (olivetol), 5-pentylresorcinol, reference compound] | > 100 µM and > 18 µg/mL |

Same assay, conditions: Artemia salina; 24 hours; read-out: LC50 brine shrimp

| Structure (SMILES) | LC50 |
| --- | --- |
| Cc1cc(CCCCCCCCCCc2cccc(C)c2O)ccc1O [1-(2-hydroxy-3-methylphenyl)-10-(4-hydroxy-3-methylphenyl)decane] | 2.2 µM and 0.78 µg/mL |
| CCCCCCCCC(=O)c1ccc(O)cc1 [4-nonanoylphenol] | 100 nM and 0.024 µg/mL |
| CCCCCCCCCc1cc(O)c(C)c(O)c1 [2-methyl-5-nonyl-resorcinol] | 8.3 µM and 2.1 µg/mL |
| Oc1ccc(CCCCCCCCCCCCCCc2ccc(O)cc2)cc1 [1,14-bis(4-hydroxyphenyl)tetradecane] | 7.9 µM and 3.7 µg/mL |
| Oc1ccc(CCCCCCCCCCCCc2ccc(O)cc2)cc1 [1,12-bis(4-hydroxyphenyl)dodecane] | 3.8 µM and 1.4 µg/mL |
| CCCCCCCCCCCCCCCCCc1cc(O)cc(O)c1 [5-heptadecylresorcinol] | > 100 µM and > 18 µg/mL |
| Cc1c(O)cc(CCCCCCCCCCc2cc(O)c(C)c(O)c2)cc1O [1,10-bis(3,5-dihydroxy-4-methylphenyl)decane] | > 25 µM and > 9.7 µg/mL |
| Cc1c(O)cc(CCCCCCCCCCCCc2cc(O)c(C)c(O)c2)cc1O [1,12-bis(3,5-dihydroxy-4-methylphenyl)dodecane] | > 25 µM and > 10 µg/mL |
| CCCCCCCCCCc1cc(O)cc(O)c1C(=O)OCC [ethyl 2,4-dihydroxy-6-decylbenzoate] | 2.3 µM and 0.75 µg/mL |
| Oc1ccc(CCCCCCCCCCCCCCc2ccccc2O)cc1 [1-(2-hydroxyphenyl)-14-(4-hydroxyphenyl)tetradecane] | 3.7 µM and 1.4 µg/mL |
| Cc1c(O)cc(CCCCCCCCc2cc(O)c(C)c(O)c2)cc1O [1,8-bis(3,5-dihydroxy-4-methylphenyl)octane] | > 25 µM and > 9 µg/mL |
| CCCCCCCCCc1cc(O)cc(O)c1C(=O)OCC [ethyl 2,4-dihydroxy-6-nonylbenzoate] | 2.6 µM and 0.8 µg/mL |
| CCCCCCCCCCCCc1cc2c(C)cc(=O)oc2cc1O [6-dodecyl-7-hydroxy-4-methylcoumarin] | > 25 µM and > 8.1 µg/mL |
| Oc1ccccc1CCCCCCCCCCCCCCc1ccccc1O [1,14-bis(2-hydroxyphenyl)tetradecane] | 1.9 µM and 0.72 µg/mL |
| CCCCCCCCCCc1cc(O)cc(O)c1 [5-decylresorcinol] | 54 µM and 15 µg/mL |

Same assay, conditions: solvent

| Structure (SMILES) | LC50 brine shrimp, solvent [% v/v] |
| --- | --- |
| C[S+](C)[O-] [DMSO, dimethyl sulfoxide] | 11 |
